Twelve compounds from ChEMBL document CHEMBL1133869, “Synthesis and biological activity of L-tyrosine-based PPARgamma agonists with reduced molecular weight” (Bioorg Med Chem Lett, 2001) can be followed below.

Structures are written as SMILES.

Assay [1] concerns the target T1, Peroxisome proliferator-activated receptor gamma (Homo sapiens, UniProt P37231).
T1 sequence (P37231 whole entry): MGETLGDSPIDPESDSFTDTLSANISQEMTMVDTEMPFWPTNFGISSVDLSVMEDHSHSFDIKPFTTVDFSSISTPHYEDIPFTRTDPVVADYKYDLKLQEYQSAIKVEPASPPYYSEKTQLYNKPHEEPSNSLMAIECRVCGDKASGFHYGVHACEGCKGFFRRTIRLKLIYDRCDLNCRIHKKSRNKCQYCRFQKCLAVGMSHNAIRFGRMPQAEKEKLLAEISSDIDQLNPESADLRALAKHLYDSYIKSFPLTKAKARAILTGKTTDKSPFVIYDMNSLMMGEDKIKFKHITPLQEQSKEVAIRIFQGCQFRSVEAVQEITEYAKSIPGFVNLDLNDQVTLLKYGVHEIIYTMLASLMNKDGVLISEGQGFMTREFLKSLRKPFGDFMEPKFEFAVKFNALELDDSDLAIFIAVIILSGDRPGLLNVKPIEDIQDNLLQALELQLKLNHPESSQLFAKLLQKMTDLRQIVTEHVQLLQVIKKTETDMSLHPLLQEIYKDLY
Description: Binding affinity to human Peroxisome proliferator activated receptor gamma using scintillation proximity assay

Assay [2] addresses T1, Peroxisome proliferator-activated receptor gamma. The source holds these as a separate data set.
Description: Maximal reporter activity against human Peroxisome proliferator activated receptor gamma Gal4 chimeric in transiently transfected CV-1 cells by functional assay.
Assay [3] has as its target T2, Peroxisome proliferator-activated receptor alpha (Homo sapiens, UniProt Q07869).
T2 sequence (Q07869 whole entry): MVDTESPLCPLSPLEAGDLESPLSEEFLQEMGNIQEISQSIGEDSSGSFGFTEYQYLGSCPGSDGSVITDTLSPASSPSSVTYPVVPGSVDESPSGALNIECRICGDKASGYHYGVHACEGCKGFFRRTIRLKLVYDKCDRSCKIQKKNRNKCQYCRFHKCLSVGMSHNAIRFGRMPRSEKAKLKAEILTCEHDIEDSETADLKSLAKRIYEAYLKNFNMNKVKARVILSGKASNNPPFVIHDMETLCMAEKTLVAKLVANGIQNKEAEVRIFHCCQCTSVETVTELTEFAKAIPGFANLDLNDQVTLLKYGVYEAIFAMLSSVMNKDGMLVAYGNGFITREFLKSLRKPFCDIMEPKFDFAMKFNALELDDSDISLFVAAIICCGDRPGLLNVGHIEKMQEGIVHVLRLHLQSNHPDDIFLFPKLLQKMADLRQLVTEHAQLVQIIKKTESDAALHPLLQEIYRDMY
Nature of the assay: Maximal reporter activity against human Peroxisome proliferator activated receptor alpha Gal4 chimeric in transiently transfected CV-1 cells by functional assay. It is filed as cell-based.

The target in assay [4] is T3, Peroxisome proliferator-activated receptor delta (Homo sapiens, UniProt Q03181).
T3 sequence (Q03181 whole entry): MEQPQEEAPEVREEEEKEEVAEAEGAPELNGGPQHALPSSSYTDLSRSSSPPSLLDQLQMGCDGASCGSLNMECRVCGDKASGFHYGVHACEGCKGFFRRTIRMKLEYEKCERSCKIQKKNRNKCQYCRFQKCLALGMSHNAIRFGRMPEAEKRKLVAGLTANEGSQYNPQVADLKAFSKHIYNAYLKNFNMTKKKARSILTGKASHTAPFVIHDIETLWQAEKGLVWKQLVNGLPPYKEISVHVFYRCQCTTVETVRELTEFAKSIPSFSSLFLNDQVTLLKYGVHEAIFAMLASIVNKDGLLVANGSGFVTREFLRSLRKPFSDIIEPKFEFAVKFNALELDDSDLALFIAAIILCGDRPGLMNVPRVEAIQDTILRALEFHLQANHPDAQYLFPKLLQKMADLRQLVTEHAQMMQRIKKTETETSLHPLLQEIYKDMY
Nature of the assay: Binding affinity to bind to human Peroxisome proliferator activated receptor delta using scintillation proximity assay.

The subject of assay [5] is Rattus norvegicus. Nature of the assay: In vivo efficacy expressed as increase in HDL-cholesterol after at a dose of 10 mg/kg, oral, for 14 days in male rats. It is filed as functional.
In assay [6] the target is T3, Peroxisome proliferator-activated receptor delta. Nature of the assay: Concentration that gave 50% of maximal reporter activity against human Peroxisome proliferator activated receptor delta Gal4 chimeric in transiently transfected CV-1 cells by functional assay. It is filed as cell-based.
The test system of assay [7] is Rattus norvegicus. Briefly: In vivo efficacy expressed as reduction in fasting serum triglycerides at a dose of 10 mg/kg, oral, for 14 days in male rats. It is filed as functional.
Assay [8] relates to Rattus norvegicus. Briefly: In vivo efficacy expressed as reduction in fasting plasma glucose at a dose of 10 mg/kg, oral, for 14 days in male rats. It is filed as functional.

In turn, `Cc1oc(-c2ccccc2)nc1CCOc1ccc(C[C@H](NS(C)(=O)=O)C(=O)O)cc1` gave a Ki in assay [1] of 620 nM. Further, the EC50 in assay [2] worked out at 2600 nM.

For the compound `Cc1oc(-c2ccccc2)nc1CCOc1ccc(C[C@@H](C(=O)O)N2CCOCC2)cc1`, the 50% effective concentration (EC50) is 6900 nM in assay [3] and 24 nM in assay [2]. The compound also gave an inhibition constant (Ki) in assay [1] of 158 nM.

In assay [1], `CCCN[C@@H](Cc1ccc(OCCc2nc(-c3ccccc3)oc2C)cc1)C(=O)O` displayed a Ki of 52 nM. Further, in assay [2], the concentration for a half-maximal effect (EC50) came to 240 nM.

`Cc1oc(-c2ccccc2)nc1CCOc1ccc(C[C@@H](C(=O)O)N2CCCC2)cc1` displayed a Ki in assay [1] of 360 nM. For the same compound, the midpoint of the response in assay [2], the EC50, lay at 390 nM.

For the compound `Cc1oc(-c2ccccc2)nc1CCOc1ccc(C[C@H](Nc2ccccc2C(=O)c2ccccc2)C(=O)O)cc1` [FARGLITAZAR], in assay [4], the affinity corresponds to a Ki of 1200 nM.

`Cc1oc(-c2ccccc2)nc1CCOc1ccc(C[C@@H](C(=O)O)N2CCCCC2)cc1` had an inhibition constant (Ki) in assay [1] of 480 nM. For the same compound, the half-maximal effective concentration (EC50) in assay [2] is 138 nM.

Consider `CN[C@@H](Cc1ccc(OCCc2nc(-c3ccccc3)oc2C)cc1)C(=O)O`, for which, in assay [1], the affinity corresponds to a Ki of 2100 nM. In addition, it took 5000 nM to reach a half-maximal effect in assay [2] (EC50).

`Cc1oc(-c2ccccc2)nc1CCOc1ccc(C[C@@H](C(=O)O)N(C)C)cc1` registered a Ki in assay [1] of 850 nM. This compound yielded an EC50 in assay [2] of 410 nM.

`Cc1oc(-c2ccccc2)nc1CCOc1ccc(C[C@@H](C(=O)O)n2c(C)ccc2C)cc1` yielded a Ki in assay [1] of 980 nM. The same compound returned a concentration for a half-maximal effect (EC50) in assay [2] of 710 nM.

In assay [1], `Cc1oc(-c2ccccc2)nc1CCOc1ccc(C[C@H](Nc2ncccn2)C(=O)O)cc1` had a Ki of 280 nM. Besides, the half-maximal effective concentration (EC50) in assay [2] was 590 nM.

`Cc1oc(-c2ccccc2)nc1CCOc1ccc(C[C@@H](C(=O)O)n2cccc2)cc1`: in the assay on Rattus norvegicus [5], the Increase came out at 31%. In addition, the response in assay [6] was half-maximal at 3800 nM (EC50). Moreover, the results for the Reduction in the assay with Rattus norvegicus [7] and in the assay on Rattus norvegicus [8] were 24% and 40%, respectively. For the same compound, the affinity in assay [4], expressed as Ki, was 2500 nM.

For the compound `CC(=O)N[C@@H](Cc1ccc(OCCc2nc(-c3ccccc3)oc2C)cc1)C(=O)O`, the affinity in assay [1], expressed as Ki, was 2600 nM. The same compound registered a concentration giving a half-maximal response (EC50) in assay [2] of 3500 nM.

Broadly, the Ki is the equilibrium dissociation constant of an inhibitor or competing ligand from its target. The low end stands for higher affinity, the high end for lower affinity. The EC50 is the midpoint of the concentration-response curve.
